These results are taken from BindingDB's records for doi:10.1016/j.chembiol.2009.01.006 (Johns Hopkins School of Medicine, 2009).

Assay [1] addresses T1, Methionine aminopeptidase (Plasmodium falciparum Santa Lucia, UniProt W7G645).
T1 sequence (W7G645 whole entry): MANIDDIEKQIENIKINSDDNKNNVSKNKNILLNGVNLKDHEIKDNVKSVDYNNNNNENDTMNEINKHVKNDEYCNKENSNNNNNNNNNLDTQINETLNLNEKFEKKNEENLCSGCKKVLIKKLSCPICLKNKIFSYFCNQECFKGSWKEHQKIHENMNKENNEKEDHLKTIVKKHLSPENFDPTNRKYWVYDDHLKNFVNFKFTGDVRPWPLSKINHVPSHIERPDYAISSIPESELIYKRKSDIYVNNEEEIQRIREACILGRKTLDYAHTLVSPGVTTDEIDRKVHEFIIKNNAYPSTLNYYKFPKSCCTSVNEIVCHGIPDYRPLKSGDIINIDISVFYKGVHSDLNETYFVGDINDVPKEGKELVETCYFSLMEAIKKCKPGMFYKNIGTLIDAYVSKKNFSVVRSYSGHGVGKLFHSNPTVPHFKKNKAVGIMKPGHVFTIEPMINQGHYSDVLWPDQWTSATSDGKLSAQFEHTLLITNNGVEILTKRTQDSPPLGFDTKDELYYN
The assay is described as follows: Enzyme Inhibiton Assay. The text has this:
(§1) Enzyme affinity assay using Fumarranol analogs with plasmodium falciparum methionine aminopeptidases (PfMetAPs).

The target of assay [2] is Methionine aminopeptidase 2 (Plasmodium falciparum, UniProt Q8TA23). The assay is described as follows: Enzyme Inhibiton Assay.
Sequence of Methionine aminopeptidase 2 (Q8TA23 whole entry): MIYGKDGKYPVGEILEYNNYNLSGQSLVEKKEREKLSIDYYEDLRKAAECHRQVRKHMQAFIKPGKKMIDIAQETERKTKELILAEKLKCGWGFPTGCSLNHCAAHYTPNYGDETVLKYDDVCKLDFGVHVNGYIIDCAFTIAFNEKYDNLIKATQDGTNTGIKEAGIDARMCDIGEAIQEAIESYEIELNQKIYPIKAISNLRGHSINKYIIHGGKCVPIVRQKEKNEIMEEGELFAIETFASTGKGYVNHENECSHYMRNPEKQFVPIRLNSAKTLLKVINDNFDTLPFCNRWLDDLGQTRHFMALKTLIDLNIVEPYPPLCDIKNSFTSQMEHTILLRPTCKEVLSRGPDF
Source text: as §1

A value given as a limit tells only on which side of the number the result lay.

For the molecule `CO[C@@H]1[C@H](OC(=O)NC(=O)CCl)CC[C@]2(CO2)[C@H]1[C@@]1(C)O[C@@H]1CC=C(C)C` [(3R,4S,5S,6R)-5-methoxy-4-[(2R,3R)-2-methyl-3-(3-methylbut-2-en-1-yl)oxiran-2-yl]-1-oxaspiro[2.5]octan-6-yl N-(2-chloroacetyl)carbamate], the figures for the concentration for half-maximal inhibition (IC50) in assay [1] and in assay [2] were over 300 µM and 2 µM, respectively.

Turning to `CO[C@]12C(=O)CC[C@@]1(CBr)C2[C@@]1(C)O[C@@H]1CC=C(C)C` (some centres not stated) [Fumarranol Analog, 6], the IC50 in assay [2] was over 500 µM. Still for that read-out and setting: the value for `CO[C@]12C(=O)CC[C@@]1(C=O)C2[C@@]1(C)O[C@@H]1CC=C(C)C` (some centres not stated) [Fumarranol Analog, 7] was over 500 µM. Same read-out and setting: then `CO[C@]12C(=O)CC[C@@]1(CO)C2/C(C)=C/CC=C(C)C` (some centres not stated) [Fumarranol Analog, 8], with over 500 µM. On the same count and under the same terms, the value for `CO[C@]12C(=O)/C(=C/c3ccco3)C[C@@]1(CO)C2[C@@]1(C)O[C@@H]1CC=C(C)C` (some centres not stated) [Fumarranol Analog, 9] was over 500 µM; that for `CO[C@@]12C([C@@]3(C)O[C@@H]3CC=C(C)C)[C@]1(CO)CC[C@H]2O` (some centres not stated) [Fumarranol Analog, 10] was over 500 µM.
